The record followed here is patent EP0414422A2, “2-Oxo-1-oxa-8-azaspiro [4,5] decane derivatives, processes for their preparation and pharmaceutical compositions thereof” (RICHTER GEDEON VEGYESZETI GYAR R.T., priority 1989, dated 1991).

Each structure is given as a SMILES string.

The subject of series [1] is aggregated mice. Put plainly: Protective effect against the amphetamine group toxicity on aggregated mice. It counts as in vivo. The conditions noted are these: Mus musculus; male CFLP mice, p.o., one hour before 21 mg/kg d-amphetamine intraperitoneally; surviving animals counted after 24 hours; read-out: Protection against amph. ED₅₀. The method, then: (§1) Male CFLP mice with a body-weight of 18 to 25 g and male Hannover-Wistar rats with a body-weight of 160 to 180 g were used for the pharmacological investigations. The test compounds were orally administered in a 2% Tween-80 suspension. The pharmacological investigating methods used are described hereinafter.
1. Protective effect against the amphetamine group toxicity on aggregated mice
The method described in Arch. Int. Pharmacodyn. 163, 79 (1966) was used.
The mice were treated with various doses of the test substances. After one hour following the above treatment, the animals were intraperitoneally given 21 mg/kg of d-amphetamine and then the groups consisting of 10 animals each were tightly packed together in plexiglass boses of 15x15x10 cm in size. After 24 hours had elapsed following the amphetamine treatment the surviving animals were counted. The ED₅₀ values of the substances were calculated from the percentage of the surviving animals. The ED₅₀ value is the dose protecting 50% of the animals from death.

Series [2] has as its system rats. Put plainly: Inhibition of the conditioned avoidance response (CAR inhibition) on rats. In kind it is in vivo. The conditions noted are these: Rattus norvegicus, po; male Hannover-Wistar rats, p.o., treated 3 hours before the experiment; dose causing 50% inhibition of the conditioned avoidance response; read-out: CAR ED₅₀.
Description: as §1
2. Inhibition of the conditioned avoidance response (CAR inhibition) on rats
The method of D. Bovet et al. (Neuropsychopharmacology, ed. R. Rothlin Vol. 2, p. 142, Elsevier Publishing Co. N.Y. 1961) was used.
Male rats weighing 160 to 180 g were conditioned in an automated 6-channel Shuttle box for 10 days. Each daily session consisted of 50 cycles and each one cycle lasted for 40 seconds. Within a single cycle an intermittent light stimulus for 15 seconds as conditioned stimulus, and an electric stimulus of 0.8 mA for 10 seconds as unconditioned stimulus, were used with an intersignal time of 15 seconds. When an animal changed its half-court during the conditioned stimulus period, the stimulus was abolished and the footshock was avoided (conditioned avoidance response; abbreviated: CAR). Animals with a performance of at least 80% on the 8th to 10th days of conditioning were considered to be useful for the study. 3 hours before the experiment the animals were treated with various doses of the test substances and the ED₅₀ value, i.e. the dose causing an 50% inhibition of the conditioned avoidance response of the animals, was determined. Groups consisting of 10 animals each were used for each dose.

For series [3], the system named is mice. Put plainly: Measurement of the spontaneous body temperature. It counts as in vivo. To be noted: 30 mg/kg orally, rectal temperature 5 hours following treatment, related to untreated control animals. The method, then:
as §1
3. Measurement of the spontaneous body temperature
Groups consisting of 10 mice each were orally treated with 30 mg/kg doses of the test substances. After treatment the rectal temperature of the male mice was determined each hour for 5 hours. The average values of temperature decrease related to the body temperature of the untreated control animals (37.1±0.8 °C) 5 hours following treatment are given in Table 1.

Series [4] deals with mice. Briefly: Inhibition of the aggressive behaviour of the mice. It counts as in vivo. The conditions noted are these: Mus musculus, po; male mice, p.o., 3 hours following the treatment, electric stimulation of 1 mA; read-out: Antiaggressive effect, ED₅₀. The method, then:
as §1
4. Inhibition of the aggressive behaviour of the mice
The method described in J. Pharmacol. Expt. Therap. 125, 28 (1959) was used.
Pairs of male mice weighing 20 to 25 each were treated with the test compounds and then placed in cages. 3 hours following the treatment an aggressive behaviour was induced on the animals by using an electric stimulation of 1 mA current intensity. Each group consisted of 5 pairs of mice. The ED₅₀ values were calculated from the percentage of animal pairs showing no aggressive behaviour as a result of the treatment. (ED₅₀ value is the dose inhibiting the aggressive behaviour on 50% of the animals.)

Series [5] can be described thus: Acute toxicity. The conditions noted are these: male, Hannover-Wistar, rat, in vivo, po; rats, p.o., deaths observed for 14 days; read-out: LD₅₀. On the procedure: as §1
Rats were treated with various doses of the test compounds. […] The LD₅₀ value, i.e. the dose causing the death of half of the animals, was determined from the percentage of the dead animals.

For the molecule `CN1C(=O)OC2(CCN(CCCN3c4ccccc4Sc4ccc(Cl)cc43)CC2)C1(C)O` (centres unmarked) [F, 8-[3-(2-chloro-10H-phenothiazin-10-yl)propyl]-3,4-dimethyl-4-hydroxy-2-oxo-1-oxa-3,8-diazaspiro[4,5]decane], the ED50 in series [1] is 0.7 mg/kg; in series [2], 4.6 mg/kg. Besides, in series [3], the “Decrease in the spontaneous temperature” value is given as -9.1 C°.

Take `C=C1N(CCC)C(=O)OC12CCN(CCCN1c3ccccc3Sc3ccc(Cl)cc31)CC2` [E]: the ED50 in series [1] was 1.8 mg/kg; in series [2] it was 10.6 mg/kg; in series [4], 2 mg/kg. The “Decrease in the spontaneous temperature” value in series [3] was -5.6 C°.

With `CCN1C(=O)OC2(CCN(CCCN3c4ccccc4Sc4ccc(Cl)cc43)CC2)C1(C)O` (centres unmarked) [G, 8[3-(2-chloro-10H-phenothiazin-10-yl)propyl]-3-ethyl-4-hydroxy-4-methyl-2-oxo-1-oxa-3,8-diazaspiro[4,5]decane], the ED50 amounted to 2.4 mg/kg in series [1] and 6.9 mg/kg in series [2]. In series [3], the “Decrease in the spontaneous temperature” value is -8.1 C°.

Take `CN(C)CCCN1c2ccccc2Sc2ccc(Cl)cc21` [CPZ, 2-chloro-10-(3-dimethylaminopropyl)phenothiazine, reference compound]: the results for the ED50 in series [1], in series [2] and in series [4] were 7.2 mg/kg, 17.1 mg/kg and 4.3 mg/kg, respectively. Besides, in series [3], the “Decrease in the spontaneous temperature” value is -7.9 C°. The LD50 at 14 days in series [5] is 225 mg/kg.

Regarding `C=C1N(C)C(=O)OC12CCN(CCCN1c3ccccc3Sc3ccc(C(F)(F)F)cc31)CC2` [C, 3-methyl-4-methylene-2-oxo-8-[3-(2-trifluoromethyl-10H-phenothiazin-10-yl)propyl]-1-oxa-3,8-diazaspiro[4,5]decane], the results for the ED50 in series [1], in series [2] and in series [4] were 0.7 mg/kg, 1.9 mg/kg and 1.2 mg/kg, respectively. Also, the “Decrease in the spontaneous temperature” value in series [3] is -9.9 C°. Also, the LD50 at 14 days in series [5] was 235 mg/kg.

As for `C=C1N(CC)C(=O)OC12CCN(CCCN1c3ccccc3Sc3ccc(C(F)(F)F)cc31)CC2` [D, 3-ethyl-4-methylene-2-oxo-8-[3-(2-trifluoromethyl-10H-phenothiazin-10-yl)propyl]-1-oxa-3,8-diazaspiro[4,5]decane], the ED50 in series [1] turned out to be 4.1 mg/kg; in series [2] it was 6.8 mg/kg; in series [4], 2.5 mg/kg. In series [3], the “Decrease in the spontaneous temperature” value is on record as -8.2 C°. In addition, the LD50 at 14 days in series [5] was 500 mg/kg.

`CCCN1C(=O)OC2(CCN(CCCN3c4ccccc4Sc4ccc(C(F)(F)F)cc43)CC2)C1(C)O` (centres unmarked) [I, 4-hydroxy-4-methyl-2-oxo-3-propyl-8-[3-(2-trifluoromethyl-10H-phenothiazin-10-yl)propyl]-1-oxa-3,8-diazaspiro[4,5]decane]: the ED50 stood at 4.2 mg/kg in series [1] and 5.6 mg/kg in series [2]. Also, the “Decrease in the spontaneous temperature” value in series [3] is given as -7.0 C°.

For `C=C1N(CC)C(=O)OC12CCN(CCCN1c3ccccc3Sc3ccc(Cl)cc31)CC2` [B, 8-[3-(2-chloro-10H-phenothiazin-10-yl)propyl]-3-ethyl-4-methylene-2-oxo-1-oxa-3,8-diazaspiro[4,5]decane], the ED50 in series [1] is 1.6 mg/kg; in series [2], 1.6 mg/kg; in series [4], 10.9 mg/kg. In series [3], the “Decrease in the spontaneous temperature” value is -7.4 C°. Further, the LD50 at 14 days in series [5] was 500 mg/kg.

`CN1C(=O)OC2(CCN(CCCN3c4ccccc4Sc4ccc(C(F)(F)F)cc43)CC2)C1(C)O` (centres unmarked) [H, 3,4-dimethyl-4-hydroxy-2-oxo-8-[3-(2-trifluoromethyl-10H-phenothiazin-10-yl)propyl]-1-oxa-3,8-diazaspiro[4,5]decane]: the ED50 was 0.9 mg/kg in series [1] and 3.1 mg/kg in series [2]. Besides, the “Decrease in the spontaneous temperature” value in series [3] was -9.6 C°.

Regarding `C=C1N(C)C(=O)OC12CCN(CCCN1c3ccccc3Sc3ccc(Cl)cc31)CC2` [Compound A, 8-[3-(2-chloro-10H-phenothiazin-10-yl)propyl]-3-methyl-4-methylene-2-oxo-1-oxa-3,8-diazaspiro[4,5]decane], the ED50 is 0.6 mg/kg in series [1], 6 mg/kg in series [2] and 1.7 mg/kg in series [4]. The “Decrease in the spontaneous temperature” value in series [3] is listed as -8.8 C°. Also, the LD50 at 14 days in series [5] amounted to 353 mg/kg.
